Data as given in ChEMBL document CHEMBL1949541, “Discovery of 7-arylsulfonyl-1,2,3,4, 4a,9a-hexahydro-benzo[4,5]furo[2,3-c]pyridines: identification of a potent and selective 5-HT₆ receptor antagonist showing activity in rat social recognition test” (Bioorg Med Chem Lett, 2012).
Values belong to the compound of their own block, whether it stands above or below them.

How the values were obtained:
[1] = target: T1, 5-hydroxytryptamine receptor 6 (Homo sapiens, UniProt P50406); assay: Displacement of [3H]LSD from human recombinant 5HT6 receptor
[2] = (§1) Oral bioavailability in rat; format: ADME, organism-based; details: in vivo
Rattus norvegicus [3] = assay: AUC in po dosed rat; format: ADME, organism-based, Plasma; details: in vivo
Rattus norvegicus [4] = assay: as §1; format: ADME, organism-based; details: in vivo
[5] = target: T1, 5-hydroxytryptamine receptor 6; assay: Antagonist activity at human 5HT6 receptor expressed in human astrocytoma cells assessed as inhibition of cAMP production; format: functional, cell-based
[6] = target: 5-hydroxytryptamine receptor 6 (Rattus norvegicus, UniProt P31388); assay: Displacement of [3H]LSD from rat recombinant 5HT6 receptor
[7] = target: T2, 5-hydroxytryptamine receptor 2A (Homo sapiens, UniProt P28223); assay: Inhibition of human 5HT2A
Cytochrome P450 2C19 = Cytochrome P450 2C19 (Homo sapiens, UniProt P33261); assay: Inhibition of CYP 2C19; format: ADME
[8] = Ratio of drug uptake in brain to plasma in rat at 5 mg/kg, po; format: ADME, organism-based; set-up: dose 5 mg/kg, route oral; details: read-out: BPR
[9] = Plasma protein binding in rat; format: ADME, cell-free; details: read-out: PPB (converted)
Rattus norvegicus [10] = assay: Volume of distribution in rat at 1 mg/kg, iv; format: ADME, organism-based; set-up: dose 1 mg/kg, route intravenous; details: in vivo
Cytochrome P450 2D6 = Cytochrome P450 2D6 (Homo sapiens, UniProt P10635); assay: Inhibition of CYP 2D6; format: ADME
[11] = target: T3, Sodium-dependent noradrenaline transporter (Homo sapiens, UniProt P23975); assay: Inhibition of NA transporter
[12] = Oral bioavailability in rat at 5 mg/kg at 24 hrs; format: ADME, organism-based; details: in vivo
[13] = target: Muscarinic acetylcholine receptor M4 (Homo sapiens, UniProt P08173); assay: Inhibition of M4 receptor
Cytochrome P450 2C9 = Cytochrome P450 2C9 (Homo sapiens, UniProt P11712); assay: Inhibition of CYP 2C9; format: ADME
[14] = Apparent permeability from apical to basal side of MDCK2-MDR1; format: ADME, cell-based, Canis lupus familiaris, MDCK-II; details: dog, MDCK-MDR1
Rattus norvegicus [15] = assay: Half life in rat at 1 mg/kg, iv; format: ADME, organism-based; set-up: dose 1 mg/kg, route intravenous; details: in vivo
[16] = target: T4, Sodium-dependent dopamine transporter (Homo sapiens, UniProt Q01959); assay: Inhibition of DA transporter
[17] = target: Muscarinic acetylcholine receptor M2 (Homo sapiens, UniProt P08172); assay: Inhibition of M2 receptor
Cytochrome P450 3A4 = Cytochrome P450 3A4 (Homo sapiens, UniProt P08684); assay: Inhibition of CYP 3A4; format: ADME
Rattus norvegicus [18] = assay: Antiamnesic activity in rat assessed as decrease in ratio of investigation duration of familiar juvenile rat at 0.3 mg/kg, ip administered 120 mins prior to test by social recognition test; format: functional; set-up: scale not given: the % may be the effect or the level left; details: route intraperitoneal
[19] = target: Voltage-gated inwardly rectifying potassium channel KCNH2 (Homo sapiens, UniProt Q12809); assay: Inhibition of human ERG by patch clamp assay
[20] = Half life in mouse liver microsomes; format: ADME, Microsome
[21] = Inhibition of calcium channel-L type
[22] = target: 5-hydroxytryptamine receptor 2C (Homo sapiens, UniProt P28335); assay: Inhibition of human 5HT2C
[23] = target: Muscarinic acetylcholine receptor M1 (Homo sapiens, UniProt P11229); assay: Inhibition of M1 receptor
Rattus norvegicus [24] = assay: Antiamnesic activity in rat assessed as decrease in ratio of investigation duration of familiar juvenile rat at 3 mg/kg, ip administered 120 mins prior to test by social recognition test; format: functional; set-up: scale not given: the % may be the effect or the level left; details: route intraperitoneal
[25] = Half life in dog liver microsomes; format: ADME, Canis lupus familiaris, Microsome
[26] = Half life in rat liver microsomes; format: ADME, Microsome
[27] = Aqueous solubility at pH 2; format: physicochemical; details: buffer
[28] = target: T5, 5-hydroxytryptamine receptor 2B (Homo sapiens, UniProt P41595); assay: Inhibition of human 5HT2B
[29] = Aqueous solubility at pH 7.4; format: physicochemical; details: buffer
Cytochrome P450 1A2 = Cytochrome P450 1A2 (Homo sapiens, UniProt P05177); assay: Inhibition of CYP 1A2; format: ADME
Rattus norvegicus [30] = assay: Antiamnesic activity in rat assessed as decrease in ratio of investigation duration of familiar juvenile rat at 1 mg/kg, ip administered 120 mins prior to test by social recognition test; format: functional; set-up: scale not given: the % may be the effect or the level left; details: route intraperitoneal
[31] = Half life in human liver microsomes; format: ADME, Microsome
[32] = Plasma protein binding in human; format: ADME, cell-free; details: read-out: PPB (converted)
[33] = target: 5-hydroxytryptamine receptor 7 (Homo sapiens) (UniProt P34969); assay: Inhibition of human 5HT7 at 10 uM
[34] = target: Muscarinic acetylcholine receptor M4 (Homo sapiens) (UniProt P08173); details: 10 uM
Description: Inhibition of M4 receptor at 10 uM

[35] = target: 5-hydroxytryptamine receptor 3A (Homo sapiens) (UniProt P46098); assay: Inhibition of human 5HT3 at 10 uM
[36] = target: 5-hydroxytryptamine receptor 1B (Rattus norvegicus) (UniProt P28564); assay: Inhibition of rat […] at 10 uM
[37] = target: T5, 5-hydroxytryptamine receptor 2B; assay: Inhibition of human 5HT2B at 10 uM
[38] = target: 5-hydroxytryptamine receptor 5A (Homo sapiens) (UniProt P47898); assay: Inhibition of human 5HT5A at 10 uM
[39] = target: T2, 5-hydroxytryptamine receptor 2A; assay: Inhibition of human 5HT2A at 10 uM
[40] = target: 5-hydroxytryptamine receptor 1A (Homo sapiens) (UniProt P08908); assay: Inhibition of human 5HT1A at 10 uM
[41] = target: 5-hydroxytryptamine receptor 2C (Homo sapiens) (UniProt P28335); assay: Inhibition of human 5HT2C at 10 uM
[42] = target: Muscarinic acetylcholine receptor M1 (Homo sapiens) (UniProt P11229); details: 10 uM
Rattus norvegicus [43] = assay: Antiamnesic activity in ip dosed rat assessed as decrease in ratio of investigation duration of familiar juvenile rat administered 120 mins prior to test by social recognition test; format: functional, organism-based
[44] = target: T3, Sodium-dependent noradrenaline transporter; details: 10 uM
[45] = target: T4, Sodium-dependent dopamine transporter; details: 10 uM
[46] = target: Muscarinic acetylcholine receptor M2 (Homo sapiens) (UniProt P08172); details: 10 uM
Chain of Muscarinic acetylcholine receptor M2 (Homo sapiens) (P08172 whole entry): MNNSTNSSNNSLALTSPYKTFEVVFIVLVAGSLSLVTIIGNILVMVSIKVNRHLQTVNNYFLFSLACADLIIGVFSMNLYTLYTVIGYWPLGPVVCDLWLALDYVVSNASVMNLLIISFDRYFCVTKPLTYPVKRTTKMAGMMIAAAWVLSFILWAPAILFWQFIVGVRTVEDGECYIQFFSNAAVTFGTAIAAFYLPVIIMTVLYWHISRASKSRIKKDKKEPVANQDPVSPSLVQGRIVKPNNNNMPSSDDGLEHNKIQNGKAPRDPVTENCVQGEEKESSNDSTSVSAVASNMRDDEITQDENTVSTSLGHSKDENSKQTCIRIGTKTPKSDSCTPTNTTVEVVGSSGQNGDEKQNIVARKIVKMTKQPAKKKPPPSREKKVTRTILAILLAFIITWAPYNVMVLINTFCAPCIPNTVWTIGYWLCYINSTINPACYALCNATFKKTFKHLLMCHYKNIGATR
Description: Inhibition of M2 receptor at 10 uM

Chain of 5-hydroxytryptamine receptor 6 (Rattus norvegicus, UniProt P31388) (P31388 whole entry): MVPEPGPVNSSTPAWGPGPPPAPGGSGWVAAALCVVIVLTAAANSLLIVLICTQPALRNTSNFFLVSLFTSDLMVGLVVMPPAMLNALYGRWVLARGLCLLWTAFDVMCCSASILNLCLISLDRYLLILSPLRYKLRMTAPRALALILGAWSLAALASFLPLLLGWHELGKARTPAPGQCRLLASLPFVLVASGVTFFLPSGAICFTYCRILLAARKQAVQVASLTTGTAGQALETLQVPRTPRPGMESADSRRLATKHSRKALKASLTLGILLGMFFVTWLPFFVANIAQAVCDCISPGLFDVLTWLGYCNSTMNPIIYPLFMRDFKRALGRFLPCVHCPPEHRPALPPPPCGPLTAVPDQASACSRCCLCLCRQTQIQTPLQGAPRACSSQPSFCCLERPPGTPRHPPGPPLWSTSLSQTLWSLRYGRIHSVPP
T1 sequence (P50406 whole entry): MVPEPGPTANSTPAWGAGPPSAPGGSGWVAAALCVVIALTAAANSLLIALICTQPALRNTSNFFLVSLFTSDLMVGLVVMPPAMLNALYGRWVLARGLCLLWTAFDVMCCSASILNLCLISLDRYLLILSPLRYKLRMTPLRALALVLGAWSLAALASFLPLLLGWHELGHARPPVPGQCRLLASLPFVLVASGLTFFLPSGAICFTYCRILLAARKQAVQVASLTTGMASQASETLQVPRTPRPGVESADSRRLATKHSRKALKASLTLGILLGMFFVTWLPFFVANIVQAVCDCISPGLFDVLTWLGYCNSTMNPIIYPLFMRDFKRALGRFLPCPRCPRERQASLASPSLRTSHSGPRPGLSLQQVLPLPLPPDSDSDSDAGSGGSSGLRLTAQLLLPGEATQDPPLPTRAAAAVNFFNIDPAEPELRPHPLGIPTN
T5 sequence (P41595 whole entry): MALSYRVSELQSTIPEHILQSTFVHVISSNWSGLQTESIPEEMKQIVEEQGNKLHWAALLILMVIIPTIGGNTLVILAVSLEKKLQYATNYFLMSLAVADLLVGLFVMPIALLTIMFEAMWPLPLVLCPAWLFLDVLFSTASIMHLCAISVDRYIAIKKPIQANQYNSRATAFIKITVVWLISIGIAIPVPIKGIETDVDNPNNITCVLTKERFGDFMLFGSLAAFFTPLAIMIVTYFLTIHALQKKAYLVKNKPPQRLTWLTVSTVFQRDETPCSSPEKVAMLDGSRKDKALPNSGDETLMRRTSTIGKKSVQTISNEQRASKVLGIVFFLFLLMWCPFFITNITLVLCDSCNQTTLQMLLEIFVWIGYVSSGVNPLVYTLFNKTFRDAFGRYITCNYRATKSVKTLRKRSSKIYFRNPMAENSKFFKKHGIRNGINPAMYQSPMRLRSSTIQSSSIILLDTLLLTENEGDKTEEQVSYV
T3 sequence (P23975 whole entry): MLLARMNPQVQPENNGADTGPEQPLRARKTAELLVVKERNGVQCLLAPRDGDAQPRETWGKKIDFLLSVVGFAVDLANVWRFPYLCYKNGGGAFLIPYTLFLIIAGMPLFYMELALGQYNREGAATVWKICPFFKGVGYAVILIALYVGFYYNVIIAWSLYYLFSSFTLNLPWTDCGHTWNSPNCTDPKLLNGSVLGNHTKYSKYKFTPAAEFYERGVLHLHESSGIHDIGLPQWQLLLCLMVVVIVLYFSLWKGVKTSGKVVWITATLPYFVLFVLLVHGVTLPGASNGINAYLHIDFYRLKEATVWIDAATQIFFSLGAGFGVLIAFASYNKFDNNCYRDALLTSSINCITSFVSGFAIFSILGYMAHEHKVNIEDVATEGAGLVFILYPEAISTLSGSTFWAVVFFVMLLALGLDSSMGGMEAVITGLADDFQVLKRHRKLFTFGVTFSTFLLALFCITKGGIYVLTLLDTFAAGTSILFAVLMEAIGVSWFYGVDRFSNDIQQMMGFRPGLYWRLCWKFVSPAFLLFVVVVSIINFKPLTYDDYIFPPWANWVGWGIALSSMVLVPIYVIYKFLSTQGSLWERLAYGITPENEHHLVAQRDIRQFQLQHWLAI
T2 sequence (P28223 whole entry): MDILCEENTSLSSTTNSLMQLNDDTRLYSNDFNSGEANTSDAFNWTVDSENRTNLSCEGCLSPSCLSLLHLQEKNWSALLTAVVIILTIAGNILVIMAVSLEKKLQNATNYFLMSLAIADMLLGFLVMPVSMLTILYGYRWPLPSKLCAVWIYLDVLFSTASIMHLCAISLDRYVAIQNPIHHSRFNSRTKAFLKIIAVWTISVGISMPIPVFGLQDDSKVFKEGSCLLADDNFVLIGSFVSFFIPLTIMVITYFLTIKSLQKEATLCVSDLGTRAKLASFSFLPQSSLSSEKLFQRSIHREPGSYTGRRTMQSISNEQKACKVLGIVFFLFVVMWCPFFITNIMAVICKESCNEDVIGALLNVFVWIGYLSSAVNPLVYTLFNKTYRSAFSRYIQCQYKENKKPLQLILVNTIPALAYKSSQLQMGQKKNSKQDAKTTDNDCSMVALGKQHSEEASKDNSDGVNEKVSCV
T4 sequence (Q01959 whole entry): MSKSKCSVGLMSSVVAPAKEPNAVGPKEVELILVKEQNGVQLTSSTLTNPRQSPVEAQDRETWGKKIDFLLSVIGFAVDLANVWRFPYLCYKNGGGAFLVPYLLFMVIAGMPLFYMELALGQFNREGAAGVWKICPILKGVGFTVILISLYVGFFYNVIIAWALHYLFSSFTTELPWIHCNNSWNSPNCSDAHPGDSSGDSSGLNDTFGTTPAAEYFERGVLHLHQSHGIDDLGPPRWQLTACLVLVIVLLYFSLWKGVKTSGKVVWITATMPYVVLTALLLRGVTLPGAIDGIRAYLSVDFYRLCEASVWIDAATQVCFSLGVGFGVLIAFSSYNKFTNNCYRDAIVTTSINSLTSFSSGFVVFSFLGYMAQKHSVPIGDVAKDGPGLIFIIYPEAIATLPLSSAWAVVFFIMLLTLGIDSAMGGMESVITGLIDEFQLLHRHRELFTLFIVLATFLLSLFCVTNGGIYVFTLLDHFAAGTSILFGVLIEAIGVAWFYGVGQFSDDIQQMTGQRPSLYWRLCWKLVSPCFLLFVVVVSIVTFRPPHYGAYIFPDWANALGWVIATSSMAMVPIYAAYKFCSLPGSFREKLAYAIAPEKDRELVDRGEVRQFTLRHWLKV
Chain of Muscarinic acetylcholine receptor M1 (P11229 whole entry): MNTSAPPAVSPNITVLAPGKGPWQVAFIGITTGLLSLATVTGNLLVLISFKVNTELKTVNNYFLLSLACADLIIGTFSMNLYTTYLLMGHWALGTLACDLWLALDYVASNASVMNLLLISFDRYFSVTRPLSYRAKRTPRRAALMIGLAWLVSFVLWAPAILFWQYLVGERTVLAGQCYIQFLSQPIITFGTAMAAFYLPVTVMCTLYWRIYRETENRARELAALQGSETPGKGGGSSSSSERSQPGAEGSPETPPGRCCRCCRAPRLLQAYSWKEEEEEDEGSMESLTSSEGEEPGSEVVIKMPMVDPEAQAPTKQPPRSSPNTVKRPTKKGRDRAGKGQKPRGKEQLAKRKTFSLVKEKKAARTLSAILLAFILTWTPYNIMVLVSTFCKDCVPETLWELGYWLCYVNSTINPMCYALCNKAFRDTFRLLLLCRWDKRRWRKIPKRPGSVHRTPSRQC
Chain of Muscarinic acetylcholine receptor M1 (Homo sapiens) (P11229 whole entry): as above
Chain of Cytochrome P450 1A2 (P05177 whole entry): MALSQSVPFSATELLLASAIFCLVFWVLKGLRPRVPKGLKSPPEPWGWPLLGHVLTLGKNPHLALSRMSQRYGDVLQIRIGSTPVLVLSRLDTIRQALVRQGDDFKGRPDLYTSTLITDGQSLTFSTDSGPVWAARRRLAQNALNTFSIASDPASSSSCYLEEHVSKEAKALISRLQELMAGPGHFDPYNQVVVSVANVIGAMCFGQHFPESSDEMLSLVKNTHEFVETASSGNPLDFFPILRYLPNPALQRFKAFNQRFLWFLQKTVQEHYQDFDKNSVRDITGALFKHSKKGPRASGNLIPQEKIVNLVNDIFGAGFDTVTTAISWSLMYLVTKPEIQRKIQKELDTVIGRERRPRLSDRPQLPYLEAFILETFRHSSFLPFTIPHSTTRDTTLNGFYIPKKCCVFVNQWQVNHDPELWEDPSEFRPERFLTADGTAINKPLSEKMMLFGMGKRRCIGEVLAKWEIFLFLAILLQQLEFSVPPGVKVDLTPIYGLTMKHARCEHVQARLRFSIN
Chain of Muscarinic acetylcholine receptor M2 (P08172 whole entry): as the sequence (P08172 whole entry) above
Chain of 5-hydroxytryptamine receptor 5A (Homo sapiens) (P47898 whole entry): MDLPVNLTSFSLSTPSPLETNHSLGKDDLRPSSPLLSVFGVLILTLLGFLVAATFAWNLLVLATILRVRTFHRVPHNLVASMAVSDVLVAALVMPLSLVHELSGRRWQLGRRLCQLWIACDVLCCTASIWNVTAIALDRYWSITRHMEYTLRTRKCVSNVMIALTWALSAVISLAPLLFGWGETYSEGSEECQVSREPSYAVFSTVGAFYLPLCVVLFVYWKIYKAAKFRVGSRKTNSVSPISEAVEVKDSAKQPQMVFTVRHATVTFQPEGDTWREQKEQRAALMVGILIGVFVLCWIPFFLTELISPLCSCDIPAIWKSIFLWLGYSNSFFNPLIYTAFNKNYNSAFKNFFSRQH

- Ki [1]: 11 nM
- bioavailability [2]: < 1%
- AUC (Rattus norvegicus [3]): 0 ng·h/mL
Structure (SMILES): Cl.O=S(=O)(c1cccc(F)c1)c1ccc2c(c1)O[C@H]1CNCC[C@@H]21 (single isomer, unassigned; enantiomer 1)

- Ki [1]: 17 nM
- F (Rattus norvegicus [4]): 9%
- AUC (Rattus norvegicus [3]): 637 ng·h/mL
Structure (SMILES): CC(C)Oc1cccc(S(=O)(=O)c2ccc3c(c2)O[C@H]2CNCC[C@@H]32)c1.Cl (single isomer, unassigned; enantiomer 1)

- Ki [1]: 166 nM
- IC50 [5]: 1360 nM
- Ki [6]: 2180 nM
Structure (SMILES): O=S(=O)(c1cc(F)cc(F)c1)c1ccc2c(c1)O[C@H]1CNCC[C@@H]21 (single isomer, unassigned; enantiomer 1)

- Ki [1]: 68 nM
- IC50 [5]: 790 nM
Structure (SMILES): O=S(=O)(c1cc(F)cc(Cl)c1)c1ccc2c(c1)O[C@H]1CNCC[C@@H]21 (single isomer, unassigned; enantiomer 1)

- Ki [1]: 5 nM
- IC50 [5]: 40 nM
Structure (SMILES): O=S(=O)(c1ccc2c(c1)O[C@H]1CNCC[C@@H]21)c1cccc(Cl)c1Cl (single isomer, unassigned; enantiomer 1)

- Ki [1]: 56 nM
Structure (SMILES): CC(C)Oc1cccc(S(=O)(=O)c2ccc3c(c2)O[C@H]2CNCC[C@@H]32)c1F (single isomer, unassigned; enantiomer 1)

- Ki [7]: 3700 nM
- Ki [1]: 4 nM
- IC50 (Cytochrome P450 2C19): > 22900 nM
- Kp [8]: 2.76
- fraction unbound [9]: 0.027
- Vd (Rattus norvegicus [10]): 4.3 L/kg
- IC50 (Cytochrome P450 2D6): > 30000 nM
- IC50 [11]: 4400 nM
- bioavailability [12]: 39%
- IC50 [13]: 4800 nM
- IC50 (Cytochrome P450 2C9): > 30000 nM
- Papp A→B [14]: 2.88 ×10⁻⁶ cm/s
- t1/2 (Rattus norvegicus [15]): 150 min
- IC50 [16]: 6300 nM
- IC50 [5]: 67 nM
- IC50 [17]: 7900 nM
- IC50 (Cytochrome P450 3A4): > 5900 nM
- half-life [20]: > 40 min
- IC50 [21]: 3900 nM
- Ki [22]: 19000 nM
- IC50 [23]: 2200 nM
- half-life [25]: > 40 min
- half-life [26]: > 40 min
- solubility [27]: > 130 µg/mL
- Ki [28]: 6200 nM
- Ki [6]: 27 nM
- solubility [29]: > 130 µg/mL
- IC50 (Cytochrome P450 1A2): > 30000 nM
- half-life [31]: > 40 min
- fraction unbound [32]: 0.046
Structure (SMILES): COc1cc(OC(C)C)cc(S(=O)(=O)c2ccc3c(c2)O[C@H]2CNCC[C@@H]32)c1.Cl (single isomer, unassigned; enantiomer 1)
- Activity (Rattus norvegicus [18]): 22%
- IC50 [19]: 3300 nM
- Activity (Rattus norvegicus [24]): 35%
- Activity (Rattus norvegicus [30]): 21%

- inhibition [33]: 6%
- inhibition [34]: > 50%
- inhibition [35]: 25%
- inhibition [36]: 16%
- inhibition [37]: 62%
- inhibition [38]: 6%
- inhibition [39]: 83%
- inhibition [40]: 19%
- inhibition [41]: 71%
- inhibition [42]: > 50%
- inhibition [44]: > 50%
- inhibition [45]: > 50%
- inhibition [46]: > 50%
Structure (SMILES): COc1cc(OC(C)C)cc(S(=O)(=O)c2ccc3c(c2)O[C@H]2CNCC[C@@H]32)c1 (single isomer, unassigned; enantiomer 1)
- Activity (Rattus norvegicus [43]): Dose-dependent effect

- Ki [1]: 65 nM
Structure (SMILES): CC(C)Oc1cc(F)cc(S(=O)(=O)c2ccc3c(c2)O[C@H]2CNCC[C@@H]32)c1 (single isomer, unassigned; enantiomer 2)

- Ki [1]: 85 nM
- F (Rattus norvegicus [4]): 2%
- AUC (Rattus norvegicus [3]): 434 ng·h/mL
Structure (SMILES): Cl.O=S(=O)(c1cccc(F)c1)c1ccc2c(c1)O[C@H]1CNCC[C@@H]21 (single isomer, unassigned; enantiomer 2)

- Ki [1]: 31 nM
- F (Rattus norvegicus [4]): 26%
- AUC (Rattus norvegicus [3]): 310 ng·h/mL
Structure (SMILES): CC(C)Oc1cccc(S(=O)(=O)c2ccc3c(c2)O[C@H]2CNCC[C@@H]32)c1.Cl (single isomer, unassigned; enantiomer 2)

- Ki [1]: 28 nM
- IC50 [5]: 96 nM
- Ki [6]: 174 nM
Structure (SMILES): O=S(=O)(c1cc(F)cc(F)c1)c1ccc2c(c1)O[C@H]1CNCC[C@@H]21 (single isomer, unassigned; enantiomer 2)

- Ki [1]: 11 nM
- IC50 [5]: 63 nM
Structure (SMILES): O=S(=O)(c1cc(F)cc(Cl)c1)c1ccc2c(c1)O[C@H]1CNCC[C@@H]21 (single isomer, unassigned; enantiomer 2)

- Ki [1]: 2 nM
- IC50 [5]: 6 nM
Structure (SMILES): O=S(=O)(c1ccc2c(c1)O[C@H]1CNCC[C@@H]21)c1cccc(Cl)c1Cl (single isomer, unassigned; enantiomer 2)

- Ki [1]: 21 nM
Structure (SMILES): CC(C)Oc1cccc(S(=O)(=O)c2ccc3c(c2)O[C@H]2CNCC[C@@H]32)c1F (single isomer, unassigned; enantiomer 2)

- Kp [8]: 0.7
- Vd (Rattus norvegicus [10]): 5.7 L/kg
- bioavailability [12]: 24%
- t1/2 (Rattus norvegicus [15]): 42 min
Structure (SMILES): O=S(=O)(c1ccccc1)c1cnc2c(N3CCNCC3)cccc2c1 [INTEPIRDINE]
